The results in this text go back to ChEMBL document CHEMBL1127264, “Substituted 1,3-benzodioxole & 1,3-benzodithiole -2-carboxylates and their tetrazole analogs with potent binding affinity to the angiotensin II AT1 receptor” (Bioorg Med Chem Lett, 1994).

The target in assay [1] is T1, Type-2 angiotensin II receptor (Rattus norvegicus, UniProt P35351).
T1 sequence (P35351 whole entry): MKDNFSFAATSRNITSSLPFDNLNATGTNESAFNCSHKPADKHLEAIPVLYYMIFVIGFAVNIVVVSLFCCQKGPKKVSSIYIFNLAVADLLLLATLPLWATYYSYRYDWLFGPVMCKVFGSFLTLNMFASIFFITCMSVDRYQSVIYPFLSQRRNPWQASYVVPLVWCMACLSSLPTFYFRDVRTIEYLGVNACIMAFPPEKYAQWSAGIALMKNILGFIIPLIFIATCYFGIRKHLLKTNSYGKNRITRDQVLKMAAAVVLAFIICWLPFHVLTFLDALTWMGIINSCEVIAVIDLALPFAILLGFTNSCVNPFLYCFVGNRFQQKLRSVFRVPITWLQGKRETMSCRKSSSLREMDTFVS
The assay can be described thus: Binding affinity to AT2 receptor in rat midbrain binding assay. In kind it is tissue-based.

The target in assay [2] is T2, Type-1 angiotensin II receptor (Oryctolagus cuniculus, UniProt P34976).
T2 sequence (P34976 whole entry): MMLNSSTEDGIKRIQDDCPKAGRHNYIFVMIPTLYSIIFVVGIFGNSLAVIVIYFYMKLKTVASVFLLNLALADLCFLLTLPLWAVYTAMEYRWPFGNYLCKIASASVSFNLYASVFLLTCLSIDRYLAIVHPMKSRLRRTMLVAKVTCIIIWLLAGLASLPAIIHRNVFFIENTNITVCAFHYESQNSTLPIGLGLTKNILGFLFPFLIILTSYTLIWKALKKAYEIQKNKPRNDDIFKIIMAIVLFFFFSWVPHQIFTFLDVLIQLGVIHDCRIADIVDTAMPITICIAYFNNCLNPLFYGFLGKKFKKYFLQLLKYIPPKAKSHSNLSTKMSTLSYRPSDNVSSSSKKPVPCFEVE
The assay can be described thus: Binding affinity to Angiotensin II receptor, type 1 in rabbit aorta binding assay. The assay is classed as tissue-based.

By IC50 is commonly meant the concentration at which inhibition is half-maximal. Read a low IC50 as greater potency.

`CCCc1nc2c(C)ccnc2n1Cc1ccc2c(c1)OC(c1ccccc1)(c1nn[nH]n1)O2` (stereo not drawn): the IC50 in assay [1] turned out to be 16000 nM; in assay [2], 45 nM.
Taken in the same sequence, the figures for `CCCc1nc2c(C)ccnc2n1Cc1ccc2c(c1)SC(C(=O)O)(c1ccccc1)S2` (stereo not drawn) were 8100 nM and 34 nM.
In the case of `CCCc1nc2c(C)ccnc2n1Cc1ccc2c(c1)OC(C(=O)O)(c1ccccc1)O2` (stereo not drawn), the IC50 in assay [1] is 2800 nM; in assay [2] it was 56 nM.
Taken in the same sequence, the figures for `CCCc1nc2c(C)ccnc2n1Cc1ccc2c(c1)SC(c1ccccc1)(c1nn[nH]n1)S2` (stereo not drawn) were 15000 nM and 35 nM.
